Reference: article PMC7377239, “Cardiovascular Effects of Polychlorinated Biphenyls and Their Major Metabolites” (Environmental Health Perspectives, 2020)
Where a name gives a salt, the structure may show the parent alone. Read-outs that look alike come from different tables or passages of the source.

Test system: iCell cardiomyocytes (human iPSC-derived cardiomyocytes)
Test: High-content imaging of cytotoxicity and mitochondrial integrity in iPSC-CMs
Type: cell-based
Conditions: Homo sapiens; for viability at 0.01 µM / activity at 0.01 µM / viability at 0.1 µM / activity at 0.1 µM / viability at 1 µM / activity at 1 µM / viability at 10 µM / activity at 10 µM / viability at 100 µM / activity at 100 µM: Cardiomyocyte, 0.00 µM = 100.00; for viability at 0.1 µM / activity at 0.1 µM: 0.10 µM; for minimal effective concentration: iPSC-CM
Description: Details on cardiomyocyte cell culture are described in detail elsewhere ([Grimm et al. 2015b]; [Sirenko et al. 2013a]). Briefly, tissue-culture treated 384 well plates were gelatinized with 25μL per well of 0.1% (w/v) gelatin in water for 2 h at 37°C and 5% CO2 . Individual vials of cells were thawed for 4 min in a water bath maintained at 37°C. Thawed cells were resuspended in 10ml plating medium containing 1:500 (vol/vol) penicillin/streptomycin solution at room temperature (RT). Live cell counts for each cell suspension were determined by trypan blue staining and cells were further diluted to provide final cell densities of 2×10^5 viable cells/ml. Thus, 5,000 cells suspended in 25μL media were transferred per well after the gelatin solution had been discarded. Cell culture plates were rested for 30 min at RT before they were incubated for 48 h at 37°C and 5% CO2 . Then, a media exchange with 30μL of fresh maintenance medium containing 1:500 (vol/vol) penicillin/streptomycin solution was performed, and cell media were subsequently changed every 48 h for 12 d. On the experiment day, the medium was completely exchanged with either 25μL (for Ca^2+ flux assay) or 40μL (for imaging) of fresh medium.
Cytotoxicity and effects on mitochondrial integrity of various PCBs and PCB metabolites in induced pluripotent stem cell-CMs (iPSC-CMs) were assessed using high-content cellular imaging in ImageXpress® Micro Confocal (Molecular Devices) as detailed in ([Grimm et al. 2015b]). Cells in 40μL maintenance media were treated with 10μL of 5× chemical solutions to provide test chemicals at final assay concentrations ranging from 0.01 to 100μM . […] Next, sample wells were treated with 50μL equilibrated 2× concentrated staining solution (maintenance medium containing Hoechst 33342, 4μg/mL and MitoTracker™ Orange, 0.4μM ). Microplates were then incubated for 15 min at 37°C and 5% CO2 before cells were washed twice with 30μL maintenance medium. All media were aspirated and discarded, and cells were fixed with […] of a 3.7% formaldehyde solution for 15 min at 37°C and 5% […] . Fixed cells were washed 3× with 25μL PBS before image acquisition using the DAPI (Hoechst 33342) and Cy3 (MitoTracker™ Orange) filters at 10× magnification on the ImageXpress® Micro Confocal high-content confocal microscope (Molecular Devices). The multiwavelength cell scoring applications module in MetaXpress® was used to analyze acquired images.
Phenotypic responses were quantitatively assessed using concentration–response modeling as detailed elsewhere ([Sirenko et al. 2017]). Briefly, phenotypic readouts were normalized to vehicle controls and fit to a four-parameter logistic model in R studio software (version 3.1.1; R Development Core Team). Following EPA guidance on dose–response modeling, a cutoff of one standard deviation across means of vehicle control (i.e., 0.5% vol/vol DMSO in cell culture media) wells was applied to determine the point-of-departure (POD) values ([U.S. EPA 2012]). In the absence of a concentration–response, the highest tested concentration (i.e., 100μM ) was assigned as “no observable adverse effect level.” The concentration–response assessment R script, as well as templates for vehicle and concentration–response data, are available as a supplement to Sirenko et al. ([2017]). The ability of physicochemical properties to predict differences in PODs were evaluated by multiregression and mixed-effects modeling using R.

[1] = 1.5 h, read-out: cm.cam.90min POD
[2] = 1.5 h, read-out: cm.mii.90min POD
[3] = 1.5 h, read-out: cm.mito.90min POD
[4] = 1.5 h, read-out: cm.tc.90min POD
[5] = 24 h, read-out: cm.cam.24hrs POD
[6] = 24 h, read-out: cm.mii.24hrs POD
[7] = 24 h, read-out: cm.mito.24hrs POD
[8] = 24 h, read-out: cm.tc.24hrs POD

Work on `O=S(=O)(O)Oc1cc(Cl)ccc1-c1ccccc1` [2-yl PCB 3 sulfate] yielded a viability at 0.01 µM (1.5 h, read-out: cm.cam.90min) of 88.1%, an activity at 0.01 µM (1.5 h, read-out: cm.mii.90min) of 116% and an activity at 0.01 µM (1.5 h, read-out: cm.mito.90min) of 87.6%. For the same compound, the viability at 0.01 µM (1.5 h, read-out: cm.tc.90min) was 88.3%, the viability at 0.1 µM (1.5 h, read-out: cm.cam.90min) was 98.3% and the activity at 0.1 µM (1.5 h, read-out: cm.mii.90min) was 105%. It also gave an activity at 0.1 µM (1.5 h, read-out: cm.mito.90min) of 98.4%, a viability at 0.1 µM (1.5 h, read-out: cm.tc.90min) of 98.4% and a viability at 1 µM (1.5 h, read-out: cm.cam.90min) of 105%. The activity at 1 µM (1.5 h, read-out: cm.mii.90min) was 88.6%, the activity at 1 µM (1.5 h, read-out: cm.mito.90min) was 105% and the viability at 1 µM (1.5 h, read-out: cm.tc.90min) was 105%. For the same compound, the viability at 10 µM (1.5 h, read-out: cm.cam.90min) was 100%, the activity at 10 µM (1.5 h, read-out: cm.mii.90min) was 96.5% and the activity at 10 µM (1.5 h, read-out: cm.mito.90min) was 101%. The viability at 10 µM (1.5 h, read-out: cm.tc.90min) was 101%, the viability at 100 µM (1.5 h, read-out: cm.cam.90min) was 104% and the activity at 100 µM (1.5 h, read-out: cm.mii.90min) was 81%. For the same compound, the activity at 100 µM (1.5 h, read-out: cm.mito.90min) was 105%, the viability at 100 µM (1.5 h, read-out: cm.tc.90min) was 105% and the viability at 0.01 µM (24 h, read-out: cm.cam.24hrs) was 99.2%. It also gave an activity at 0.01 µM (24 h, read-out: cm.mii.24hrs) of 94.5%, an activity at 0.01 µM (24 h, read-out: cm.mito.24hrs) of 100% and a viability at 0.01 µM (24 h, read-out: cm.tc.24hrs) of 101%. It also gave a viability at 0.1 µM (24 h, read-out: cm.cam.24hrs) of 101%, an activity at 0.1 µM (24 h, read-out: cm.mii.24hrs) of 102% and an activity at 0.1 µM (24 h, read-out: cm.mito.24hrs) of 101%. For the same compound, the viability at 0.1 µM (24 h, read-out: cm.tc.24hrs) was 101%, the viability at 1 µM (24 h, read-out: cm.cam.24hrs) was 101% and the activity at 1 µM (24 h, read-out: cm.mii.24hrs) was 102%. The activity at 1 µM (24 h, read-out: cm.mito.24hrs) was 103%, the viability at 1 µM (24 h, read-out: cm.tc.24hrs) was 101% and the viability at 10 µM (24 h, read-out: cm.cam.24hrs) was 102%. The activity at 10 µM (24 h, read-out: cm.mii.24hrs) was 85.7%, the activity at 10 µM (24 h, read-out: cm.mito.24hrs) was 102% and the viability at 10 µM (24 h, read-out: cm.tc.24hrs) was 102%. It also gave a viability at 100 µM (24 h, read-out: cm.cam.24hrs) of 98.3%, an activity at 100 µM (24 h, read-out: cm.mii.24hrs) of 91.6% and an activity at 100 µM (24 h, read-out: cm.mito.24hrs) of 99.6%. It also gave a viability at 100 µM (24 h, read-out: cm.tc.24hrs) of 98.5%, a minimal effective concentration [1] of 100 µM and a minimal effective concentration [2] of 7.39 µM. It also gave a minimal effective concentration [3] of 100 µM, a minimal effective concentration [4] of 100 µM and a minimal effective concentration [5] of 100 µM. It also gave a minimal effective concentration [6] of 100 µM, a minimal effective concentration [7] of 100 µM and a minimal effective concentration [8] of 100 µM.
With `Oc1cccc(-c2ccc(Cl)cc2)c1` [3'-OH PCB3] the viability at 0.01 µM (1.5 h, read-out: cm.cam.90min) was 101%, the activity at 0.01 µM (1.5 h, read-out: cm.mii.90min) was 109% and the activity at 0.01 µM (1.5 h, read-out: cm.mito.90min) was 101%. The viability at 0.01 µM (1.5 h, read-out: cm.tc.90min) was 101%, the viability at 0.1 µM (1.5 h, read-out: cm.cam.90min) was 96.5% and the activity at 0.1 µM (1.5 h, read-out: cm.mii.90min) was 107%. It also gave an activity at 0.1 µM (1.5 h, read-out: cm.mito.90min) of 96.4%, a viability at 0.1 µM (1.5 h, read-out: cm.tc.90min) of 96.6% and a viability at 1 µM (1.5 h, read-out: cm.cam.90min) of 103%. The activity at 1 µM (1.5 h, read-out: cm.mii.90min) was 98.4%, the activity at 1 µM (1.5 h, read-out: cm.mito.90min) was 103% and the viability at 1 µM (1.5 h, read-out: cm.tc.90min) was 103%. The viability at 10 µM (1.5 h, read-out: cm.cam.90min) was 99.4%, the activity at 10 µM (1.5 h, read-out: cm.mii.90min) was 106% and the activity at 10 µM (1.5 h, read-out: cm.mito.90min) was 99.2%. For the same compound, the viability at 10 µM (1.5 h, read-out: cm.tc.90min) was 99.2%, the viability at 100 µM (1.5 h, read-out: cm.cam.90min) was 0% and the activity at 100 µM (1.5 h, read-out: cm.mii.90min) was 0%. For the same compound, the activity at 100 µM (1.5 h, read-out: cm.mito.90min) was 0%, the viability at 100 µM (1.5 h, read-out: cm.tc.90min) was 0% and the viability at 0.01 µM (24 h, read-out: cm.cam.24hrs) was 91.7%. For the same compound, the activity at 0.01 µM (24 h, read-out: cm.mii.24hrs) was 99.6%, the activity at 0.01 µM (24 h, read-out: cm.mito.24hrs) was 88.3% and the viability at 0.01 µM (24 h, read-out: cm.tc.24hrs) was 91.6%. The viability at 0.1 µM (24 h, read-out: cm.cam.24hrs) was 99.1%, the activity at 0.1 µM (24 h, read-out: cm.mii.24hrs) was 109% and the activity at 0.1 µM (24 h, read-out: cm.mito.24hrs) was 97.5%. The viability at 0.1 µM (24 h, read-out: cm.tc.24hrs) was 98.9%, the viability at 1 µM (24 h, read-out: cm.cam.24hrs) was 104% and the activity at 1 µM (24 h, read-out: cm.mii.24hrs) was 92.4%. The activity at 1 µM (24 h, read-out: cm.mito.24hrs) was 101%, the viability at 1 µM (24 h, read-out: cm.tc.24hrs) was 104% and the viability at 10 µM (24 h, read-out: cm.cam.24hrs) was 98%. For the same compound, the activity at 10 µM (24 h, read-out: cm.mii.24hrs) was 98.8%, the activity at 10 µM (24 h, read-out: cm.mito.24hrs) was 97.5% and the viability at 10 µM (24 h, read-out: cm.tc.24hrs) was 98.6%. It also gave a viability at 100 µM (24 h, read-out: cm.cam.24hrs) of 0.0471%, an activity at 100 µM (24 h, read-out: cm.mii.24hrs) of 0% and an activity at 100 µM (24 h, read-out: cm.mito.24hrs) of 0%. For the same compound, the viability at 100 µM (24 h, read-out: cm.tc.24hrs) was 0.09%, the minimal effective concentration [1] was 16 µM and the minimal effective concentration [2] was 35 µM. The minimal effective concentration [3] was 15 µM, the minimal effective concentration [4] was 14.8 µM and the minimal effective concentration [5] was 14.1 µM. The minimal effective concentration [6] was 23 µM, the minimal effective concentration [7] was 14 µM and the minimal effective concentration [8] was 15.6 µM.
